Test results from ChEMBL document CHEMBL5236568, “Discovery of 3,4-dihydropyrimido[4,5-d]pyrimidin-2(1H)-one and 3,4-dihydropyrido[2,3-d]pyrimidin-2(1H)-one derivatives as novel ENPP1 inhibitors” (Bioorg Med Chem Lett, 2022).

Legend:
[1] = molecular target: CYP2C9 (Homo sapiens, UniProt P11712); experiment: Inhibition of CYP2C9 (unknown origin) assessed as remaining activity at 10 uM relative to control; format: ADME; details: read-out: Activity
[2] = Metabolic stability in human liver microsomes assessed as compound remaining at 1 uM after 30 mins; format: ADME, Microsome; details: read-out: Stability
[3] = molecular target: T1, Ectonucleotide pyrophosphatase/phosphodiesterase family member 1 (Homo sapiens) (UniProt P22413); experiment: Inhibition of ENPP1 (unknown origin) at 10 uM relative to control
T1 sequence (whole entry): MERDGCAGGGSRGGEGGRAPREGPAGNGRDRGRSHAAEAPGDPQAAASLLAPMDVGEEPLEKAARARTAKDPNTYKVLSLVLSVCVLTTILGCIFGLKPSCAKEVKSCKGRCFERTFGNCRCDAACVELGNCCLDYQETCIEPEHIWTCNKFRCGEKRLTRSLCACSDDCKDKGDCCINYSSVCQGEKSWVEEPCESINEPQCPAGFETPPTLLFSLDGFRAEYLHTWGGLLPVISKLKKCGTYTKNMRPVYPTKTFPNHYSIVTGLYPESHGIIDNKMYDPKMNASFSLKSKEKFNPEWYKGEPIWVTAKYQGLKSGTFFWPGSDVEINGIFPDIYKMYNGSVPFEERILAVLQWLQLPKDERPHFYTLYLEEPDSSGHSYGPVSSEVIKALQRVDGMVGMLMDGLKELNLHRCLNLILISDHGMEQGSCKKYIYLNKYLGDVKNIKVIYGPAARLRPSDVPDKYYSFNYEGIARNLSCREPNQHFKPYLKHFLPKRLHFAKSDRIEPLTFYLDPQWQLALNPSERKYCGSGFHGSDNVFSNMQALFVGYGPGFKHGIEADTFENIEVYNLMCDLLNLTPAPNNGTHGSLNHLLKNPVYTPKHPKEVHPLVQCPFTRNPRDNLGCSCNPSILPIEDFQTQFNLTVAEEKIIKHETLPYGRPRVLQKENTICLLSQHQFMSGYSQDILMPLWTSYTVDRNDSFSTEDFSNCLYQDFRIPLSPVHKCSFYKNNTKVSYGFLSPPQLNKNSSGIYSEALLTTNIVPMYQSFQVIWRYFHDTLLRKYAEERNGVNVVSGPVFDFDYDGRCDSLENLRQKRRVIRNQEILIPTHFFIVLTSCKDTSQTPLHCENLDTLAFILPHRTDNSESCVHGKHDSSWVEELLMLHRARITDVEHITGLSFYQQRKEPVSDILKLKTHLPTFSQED

[4] = molecular target: T2, Ectonucleotide pyrophosphatase/phosphodiesterase family member 1 (Homo sapiens, UniProt P22413); experiment: Inhibition of ENPP1 (unknown origin)
T2 sequence (P22413 whole entry): T1 sequence (whole entry)

[5] = molecular target: CYP2D6 (Homo sapiens, UniProt P10635); experiment: Inhibition of CYP2D6 (unknown origin) assessed as remaining activity at 10 uM relative to control; format: ADME; details: read-out: Activity
CYP2D6, sequence (P10635 whole entry): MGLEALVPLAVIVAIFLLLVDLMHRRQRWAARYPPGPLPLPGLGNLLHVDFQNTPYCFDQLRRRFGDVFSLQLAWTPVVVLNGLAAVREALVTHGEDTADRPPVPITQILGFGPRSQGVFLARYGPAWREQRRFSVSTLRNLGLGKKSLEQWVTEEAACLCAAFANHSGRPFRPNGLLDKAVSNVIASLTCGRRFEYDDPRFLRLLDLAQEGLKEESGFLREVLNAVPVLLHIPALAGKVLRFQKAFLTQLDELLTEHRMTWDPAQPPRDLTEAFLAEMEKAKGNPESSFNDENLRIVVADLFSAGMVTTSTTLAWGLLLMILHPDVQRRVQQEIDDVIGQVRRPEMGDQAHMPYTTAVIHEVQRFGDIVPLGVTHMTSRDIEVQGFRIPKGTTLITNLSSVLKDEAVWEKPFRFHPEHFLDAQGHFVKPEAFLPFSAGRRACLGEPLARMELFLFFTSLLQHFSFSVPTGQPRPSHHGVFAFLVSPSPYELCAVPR

[6] = molecular target: T3, CYP1A2 (Homo sapiens, UniProt P05177); experiment: Inhibition of CYP1A2 (unknown origin) assessed as remaining activity at 10 uM relative to control; format: ADME; details: read-out: Activity
T3 sequence (P05177 whole entry): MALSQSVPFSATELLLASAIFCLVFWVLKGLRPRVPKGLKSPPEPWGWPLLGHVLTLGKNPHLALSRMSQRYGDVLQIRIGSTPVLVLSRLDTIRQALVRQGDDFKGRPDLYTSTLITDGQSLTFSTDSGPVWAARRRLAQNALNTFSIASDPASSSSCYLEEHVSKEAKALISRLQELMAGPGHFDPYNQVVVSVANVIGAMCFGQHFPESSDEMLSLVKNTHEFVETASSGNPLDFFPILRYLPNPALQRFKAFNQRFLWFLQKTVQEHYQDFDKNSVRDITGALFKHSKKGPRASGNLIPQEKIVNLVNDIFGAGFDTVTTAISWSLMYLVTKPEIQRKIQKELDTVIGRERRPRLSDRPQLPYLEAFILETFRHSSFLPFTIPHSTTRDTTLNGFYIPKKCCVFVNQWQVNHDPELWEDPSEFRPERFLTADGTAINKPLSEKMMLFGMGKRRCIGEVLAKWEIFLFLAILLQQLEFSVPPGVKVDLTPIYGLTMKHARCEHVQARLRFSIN

[7] = molecular target: CYP3A4 (Homo sapiens, UniProt P08684); experiment: Inhibition of CYP3A4 (unknown origin) assessed as remaining activity at 10 uM relative to control; format: ADME; details: read-out: Activity
CYP3A4, sequence (P08684 whole entry): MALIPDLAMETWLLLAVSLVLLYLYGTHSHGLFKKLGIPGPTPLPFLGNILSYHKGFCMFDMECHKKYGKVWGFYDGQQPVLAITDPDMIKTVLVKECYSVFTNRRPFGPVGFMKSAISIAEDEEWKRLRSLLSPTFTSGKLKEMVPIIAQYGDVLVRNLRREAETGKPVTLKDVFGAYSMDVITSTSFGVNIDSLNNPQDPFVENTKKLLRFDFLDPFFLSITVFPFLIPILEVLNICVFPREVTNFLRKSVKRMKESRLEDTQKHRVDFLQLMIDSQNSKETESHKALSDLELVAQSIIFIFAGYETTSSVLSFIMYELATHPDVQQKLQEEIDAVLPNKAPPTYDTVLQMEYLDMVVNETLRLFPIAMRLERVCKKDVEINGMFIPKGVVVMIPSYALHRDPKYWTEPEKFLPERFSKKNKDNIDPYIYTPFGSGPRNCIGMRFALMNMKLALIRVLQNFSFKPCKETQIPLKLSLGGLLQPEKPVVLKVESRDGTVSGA

[8] = molecular target: CYP2C19 (Homo sapiens, UniProt P33261); experiment: Inhibition of CYP2C19 (unknown origin) assessed as remaining activity at 10 uM relative to control; format: ADME; details: read-out: Activity
CYP2C19, sequence (P33261 whole entry): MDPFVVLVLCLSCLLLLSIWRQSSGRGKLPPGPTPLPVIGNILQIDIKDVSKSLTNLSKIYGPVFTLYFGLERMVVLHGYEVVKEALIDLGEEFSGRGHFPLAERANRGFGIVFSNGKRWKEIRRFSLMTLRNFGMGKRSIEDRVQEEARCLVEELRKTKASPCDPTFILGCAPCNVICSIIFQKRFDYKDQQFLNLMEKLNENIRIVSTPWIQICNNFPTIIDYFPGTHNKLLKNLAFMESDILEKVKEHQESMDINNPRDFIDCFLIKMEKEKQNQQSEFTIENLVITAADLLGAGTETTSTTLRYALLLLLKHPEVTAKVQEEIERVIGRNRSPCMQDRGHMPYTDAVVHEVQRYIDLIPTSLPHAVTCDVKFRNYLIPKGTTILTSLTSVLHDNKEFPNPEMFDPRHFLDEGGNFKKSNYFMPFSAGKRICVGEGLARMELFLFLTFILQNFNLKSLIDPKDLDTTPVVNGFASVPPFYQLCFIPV

[9] = Metabolic stability in mouse liver microsomes assessed as compound remaining at 1 uM after 30 mins; format: ADME, Microsome; details: read-out: Stability
[10] = Metabolic stability in rat liver microsomes assessed as compound remaining at 1 uM after 30 mins; format: ADME, Microsome; details: read-out: Stability

CYP2C9, sequence (P11712 whole entry): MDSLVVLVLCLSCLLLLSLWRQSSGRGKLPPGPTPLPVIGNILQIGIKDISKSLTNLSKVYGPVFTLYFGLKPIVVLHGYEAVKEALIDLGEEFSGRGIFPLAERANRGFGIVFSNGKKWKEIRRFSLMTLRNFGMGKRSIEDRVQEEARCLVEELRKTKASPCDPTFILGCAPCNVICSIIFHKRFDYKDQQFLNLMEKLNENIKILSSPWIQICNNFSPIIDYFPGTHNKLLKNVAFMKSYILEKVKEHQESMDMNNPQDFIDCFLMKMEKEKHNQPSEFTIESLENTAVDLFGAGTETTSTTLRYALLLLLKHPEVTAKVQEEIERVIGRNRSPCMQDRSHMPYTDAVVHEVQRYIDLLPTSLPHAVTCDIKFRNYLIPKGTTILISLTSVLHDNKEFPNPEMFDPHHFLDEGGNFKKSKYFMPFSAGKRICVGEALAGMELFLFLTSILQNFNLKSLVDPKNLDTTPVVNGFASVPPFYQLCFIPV

Compound	inhibition [3] [%]	IC50 [4] [nM]	also measured
CN1Cc2c(ncnc2N2CCC(C)(CNS(N)(=O)=O)CC2)NC1=O	100	3.7	activity at 10 µM [1]: 89.4%; remaining at 0.5 h, 1 µM [2]: 85.9%; activity at 10 µM [5]: 90.9%; activity at 10 µM [6]: 94.3%; activity at 10 µM [7]: 89.7%; activity at 10 µM [8]: > 100%; remaining at 0.5 h, 1 µM [9]: 96.4%; remaining at 0.5 h, 1 µM [10]: 82.3%
CN1Cc2c(N3CCC(CCNS(N)(=O)=O)CC3)ncnc2N(C)C1=O	62	–	–
CN1Cc2c(ncnc2N2CCC3(CC2)CCN(S(N)(=O)=O)C3)NC1=O	100	164	–
NS(=O)(=O)NCc1ccc(-c2ccnc3c2CN(Cc2ccccc2)C(=O)N3)cc1	9	–	–
CN1Cc2c(ncnc2N2CCC(C)(NS(N)(=O)=O)CC2)NC1=O	98	236	–
CN1Cc2c(-c3ccc(CNS(N)(=O)=O)cc3)ccnc2N(C)C1=O	96	326	–
NS(=O)(=O)NCc1ccc(-c2ccnc3c2CN(C2CC2)C(=O)N3)cc1	35	–	–
CN1Cc2c(-c3ccc(CNS(N)(=O)=O)cc3)ccnc2N(Cc2ccccc2)C1=O	0	–	–
CN1Cc2c(ncnc2N2CCC(CCNS(N)(=O)=O)CC2)NC1=O	96	773	–
Cc1ccc(S(=O)(=O)NCc2cccc(-c3ccnc4c3CN(C)C(=O)N4)c2)cc1	4	–	–
NS(=O)(=O)Nc1cccc(-c2ccnc3c2CN(C2CC2)C(=O)N3)c1	62	7460	–
CN1Cc2c(ncnc2N2CCC(CNS(N)(=O)=O)CC2)NC1=O	100	48	–
CN1Cc2c(ncnc2N2CCC(NS(N)(=O)=O)CC2)NC1=O	93	759	–
CN1Cc2c(ncnc2N2CCC(C)(CCNS(N)(=O)=O)CC2)NC1=O	93	669	–
NS(=O)(=O)NCc1cccc(-c2ccnc3c2CNC(=O)N3)c1	20	–	–

The next lines start with results.

inhibition [3] [%]	IC50 [4] [nM]	Compound	also measured
68	–	Cc1ccc(S(=O)(=O)NCc2cccc(-c3ncnc4c3CN(C)C(=O)N4)c2)cc1	–
99	32.3	CN1Cc2c(-c3ccc(CNS(N)(=O)=O)c(F)c3)ccnc2NC1=O	activity at 10 µM [1]: > 100%; remaining at 0.5 h, 1 µM [2]: 86.9%; activity at 10 µM [5]: > 100%; activity at 10 µM [6]: > 100%; activity at 10 µM [7]: > 100%; activity at 10 µM [8]: > 100%; remaining at 0.5 h, 1 µM [9]: 91.1%; remaining at 0.5 h, 1 µM [10]: 86.7%
99	171	CN1Cc2c(ncnc2-c2cccc(CNS(N)(=O)=O)c2)NC1=O	–
80	1160	CN1Cc2c(-c3ccc(CN(C)S(N)(=O)=O)cc3)ccnc2NC1=O	–
100	389	CN1Cc2c(-c3ccc(CNS(N)(=O)=O)cc3)ccnc2NC1=O	–
15	–	CN1Cc2c(-c3cccc(CNS(C)(=O)=O)c3)ccnc2NC1=O	–
67	–	CN1Cc2c(ncnc2Nc2ccc(NS(N)(=O)=O)cc2)NC1=O	–
100	360	CN1Cc2c(ncnc2-c2cccc(NS(N)(=O)=O)c2)NC1=O	–
96	525	CN1Cc2c(-c3cccc(CNS(N)(=O)=O)c3)ccnc2NC1=O	–
30	–	CN1Cc2c(ncnc2-c2cccc(CNS(C)(=O)=O)c2)NC1=O	–
95	766	CN1Cc2c(-c3cccc(NS(N)(=O)=O)c3)ccnc2NC1=O	–
96	916	CN1Cc2c(ncnc2-c2ccc(CNS(N)(=O)=O)c(F)c2)NC1=O	–
97	452	CN1Cc2c(ncnc2-c2ccc(CNS(N)(=O)=O)cc2)NC1=O	–
100	45	CN1Cc2c(NCc3ccc(NS(N)(=O)=O)cc3)ncnc2NC1=O	–
